Consider 6 compounds from patent US5804590A, “Treatment and prophylaxis of osteoporosis” (Sankyo Company, Limited, priority 1995, dated 1998).

“Also recorded” adds a separate entry of the source.

One data set deals with ddy-mice. As to the kind of experiment: Acute toxicity, oral administration. Conditions: in vivo, po, 300 mg/kg. The method, then: (§1) The acute toxicity of troglitazone was examined by a conventional procedure.
(§2) To 3 ddy-mice, a dose of 300 mg/kg of troglitazone was administered orally.
(§3) The acute toxicities of Compounds Nos. 2, 3, 4 and 10 were examined in a similar way by oral administration. The acute toxicity values were all found to be more than 300 mg/kg.

The subject of data set [1] is Zucker Diabetic Fatty rats. As to the kind of experiment: Measurement of bone mineral density (femoral bones, ZDF rats). The class given is in vivo. Conditions: for Bone mineral density (BMD): mean ± standard error. The method, then: Osteoporosis may be assessed by a measurement of bone mineral density. Bone mineral density can be measured according to the method reported, for example, in Radioisotope, 37, (9), 521-524 (1988) or in Rinsho-Hoshasen, 35, (1), 41-48 (1990).
Three groups of animals were tested:
(§4) 1. Zucker Diabetic Fatty rats ("ZDF rats"): these are experimental animals with spontaneous diabetes mellitus. A test drug was administered to these animals in a conventional F2 powdery feed. This group is referred to as the "test ZDF group".
2. ZDF rats to which the F2 powdery feed is administered without the drug. This group is referred to as the "control ZDF group".
3. Normal experimental rats (i.e. not ZDF rats) to which the F2 powdery feed is administered without the drug. This group is referred to as the "normal group".
(§5) Compound No. 1, or 5-[4-(6-hydroxy-2,5,7,8-tetramethylchroman-2-ylmethoxy)benzyl]thiazolidin- 2,4-dione, also known as "troglitazone", was administered to 6 week old ZDF rats, by mixing it into F2 powdery feed in an amount of 0.2% w/w for a period of 13 weeks. The mean dosage was 165 mg/kg/day. […] At 19 weeks of age, the rats were sacrificed by ether anesthesia followed by blood-letting from the abdominal aorta. The femoral bones were excised to measure their bone mineral density. For the measurement by X ray, Bone Mineral Density Measuring Apparatus (DCS-600R, Aloka, Japan) was employed.
The experiment reported in Example 1 was repeated, using 4 groups of rats:
1. A normal group (as in Example 1).
2. A control ZDF group (as in Example 1).
(§6) 3. A test ZDF group in which troglitazone was present in the feed in an amount of 0.2%, resulting in an average uptake of 132 mg/kg/day (hereinafter the "troglitazone ZDF group").
(§7) 4. A test ZDF group in which pioglitazone was present in the feed in an amount of 0.067%, resulting in an average uptake of 52.6 mg/kg/day (hereinafter the "pioglitazone ZDF group").
The experiment reported in Example 1 was repeated, but only for 4 weeks, using 6 groups of rats:
(§8) 3. A test ZDF group in which troglitazone was present in the feed in an amount of 0.05%, resulting in an average uptake of 43.5 mg/kg/day (hereinafter the "low troglitazone ZDF group").
(§9) 4. A test ZDF group in which troglitazone was present in the feed in an amount of 0.1%, resulting in an average uptake of 89.8 mg/kg/day (hereinafter the "high troglitazone ZDF group").
(§10) 5. A test ZDF group in which pioglitazone was present in the feed in an amount of 0.0125%, resulting in an average uptake of 12.4 mg/kg/day (hereinafter the "low pioglitazone ZDF group").
(§11) 6. A test ZDF group in which pioglitazone was present in the feed in an amount of 0.025%, resulting in an average uptake of 23.1 mg/kg/day (hereinafter the "high pioglitazone ZDF group").

For data set [2], the system named is Zucker Diabetic Fatty rats. As to the kind of experiment: Control of diabetes in ZDF rats. The class given is in vivo. The method, then:
as §4, §5, §6, §7, §8, §9, §10, §11

The nature of data set [3]: Acute toxicity, oral administration. Conditions: mouse, in vivo; oral administration. The protocol:
as §1, §2, §3

The test system of the next data set is rat. Conditions: J. Bone & Mineral Research, 10(1), S361 (1995); cited from earlier work.
The mark [4] stands for this setting: Example 2, at doses that fully control diabetes, compared with control ZDF rats.
Setting [5] is: Example 3, low and high doses, 4 weeks, as compared with control ZDF group.
The mark [6] stands for this setting: Example 2, troglitazone 132 mg/kg/day, pioglitazone 52.6 mg/kg/day.
Setting [7] is: Example 3, troglitazone 43.5 and 89.8 mg/kg/day, pioglitazone 12.4 and 23.1 mg/kg/day.

For `Cc1c(C)c2c(c(C)c1O)CCC(C)(COc1ccc(CC3SC(=O)NC3=O)cc1)O2` (centres unmarked) [Compound No. 1, 5-[4-(6-Hydroxy-2,5,7,8-tetramethylchroman-2-ylmethoxy)benzyl]thiazolidin-2,4-dione], in the data set with ddy-mice, the “survival after 5 days” value was “all mice were alive”. Besides, the “Bone mineral density (BMD)” value came to 172.8 ± 7.2 mg/cm^2 in data set [1] (Example 1, test ZDF group, 0.2% w/w in feed, mean 165 mg/kg/day, 13 weeks, n=7, * p < 0.05 vs control ZDF (164.6 ± 3.9), normal 187.3 ± 2.3); 169.4 ± 1.1 mg/cm^2 in data set [1] (Example 2, troglitazone ZDF group, 0.2% in feed, 132 mg/kg/day, n=6, *** p < 0.001 vs control ZDF (157.0 ± 2.2), normal 187.4 ± 1.5); 159.8 ± 1.2 mg/cm^2 in data set [1] (Example 3, 4 weeks, high troglitazone ZDF group, 0.1% in feed, 89.8 mg/kg/day, n=5, *** p < 0.001 vs control ZDF (149.8 ± 1.0)); 156.6 ± 1.5 mg/cm^2 in data set [1] (Example 3, 4 weeks, low troglitazone ZDF group, 0.05% in feed, 43.5 mg/kg/day, n=5, *** p < 0.001 vs control ZDF (149.8 ± 1.0), normal 153.4 ± 0.9). In addition, the “effect on bone mineral density (in words)” value is “increased BMD from the depressed level in the control ZDF rats almost to the level found in normal rats” in data set [1] (setting [4]) and “improves BMD as compared with the control ZDF group” in data set [1] (setting [5]). In addition, the control of diabetes entry is given as “diabetes is fully controlled” in data set [2] (Example 1, mean dosage 165 mg/kg/day in feed); “fully controlled diabetes” in data set [2] (setting [6]); “do not control diabetes or control it only partially; also recorded: incompletely effective against diabetes” in data set [2] (setting [7]).
One may read the LD50 as the dose at which mortality reaches 50%. Lower therefore signals greater toxicity. For the compound `Cc1c(C)c2c(c(C)c1O)CCC(COc1ccc(CC3SC(=O)NC3=O)cc1)O2` (centres unmarked) [compound 2], the LD50 at 120 h in data set [3] was more than 300 mg/kg.
The compound `CC1(COc2ccc(CC3SC(=O)NC3=O)cc2)CCc2cc(O)ccc2O1` (centres unmarked) [compound 3] showed an LD50 at 120 h in data set [3] of more than 300 mg/kg.
Same read-out and setting: with `CC1(COc2ccc(CC3SC(=O)NC3=O)cc2)CCc2cc(O)c(C(C)(C)C)cc2O1` (centres unmarked) [compound 4, 5-[4-(6-Hydroxy-2-methyl-7-t-butylchroman-2-ylmethoxy)benzyl]thiazolidin-2,4-dione] the figure was more than 300 mg/kg; with `CCOC(=O)Oc1c(C)c(C)c2c(c1C)CCC(C)(COc1ccc(CC3SC(=O)NC3=O)cc1)O2` (centres unmarked) [compound 10], more than 300 mg/kg.
Take `CCc1ccc(CCOc2ccc(CC3SC(=O)NC3=O)cc2)nc1` (centres unmarked) [pioglitazone, reference compound]: the “effect on bone mineral density (in words)” value in data set [1] (setting [4]) was “reduced BMD to below the level found in untreated ZDF rats”; in data set [1] (setting [5]) it was “not effective”. Moreover, the “Bone mineral density (BMD)” value in data set [1] (Example 2, pioglitazone ZDF group, 0.067% in feed, 52.6 mg/kg/day, n=6, * p < 0.05 vs control ZDF (157.0 ± 2.2)) is on record as 149.3 ± 1.8 mg/cm^2; in data set [1] (Example 3, 4 weeks, high pioglitazone ZDF group, 0.025% in feed, 23.1 mg/kg/day, n=5, control ZDF 149.8 ± 1.0), 151.2 ± 0.7 mg/cm^2; in data set [1] (Example 3, 4 weeks, low pioglitazone ZDF group, 0.0125% in feed, 12.4 mg/kg/day, n=5, control ZDF 149.8 ± 1.0), 151.2 ± 0.9 mg/cm^2. Moreover, the control of diabetes result in data set [2] (setting [6]) is “fully controlled diabetes”; in data set [2] (setting [7]), “do not control diabetes or control it only partially; also recorded: incompletely effective against diabetes”. Moreover, the “anti-diabetic activity relative to troglitazone” value in data set [2] (statement in Example 2) was “more active than troglitazone”. For the same compound, the “bone loss as assessed by bone mineral density” value in the data set on rat was “lead to bone loss, as assessed by a decrease in bone mineral density”.
